{"source": "the supplement of paper PMC10307832", "assay_in_all_cases": "relative viability (nuclei count vs DMSO), 5 days (fraction); higher = more cells survive", "key": {"LCLC-97TM1": {"tested_on": "LCLC-97TM1", "summary_of_the_method": "(§1)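 One day after seeding in 1536-well plates, lung cancer cell lines were dosed by pin tool. Dosing was either single-drug or a fixed anchor-drug dose plus five library-drug doses (not always all listed) in √10 steps. After 5 days, nuclei were stained in one fix-and-stain step and counted on 4× images, and relative viability is the nuclei count of treated wells over that of vehicle wells, given as the median of duplicate plates.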"}, "NCI-H1793": {"tested_on": "NCI-H1793", "summary_of_the_method": "as §1"}, "SW 1573": {"tested_on": "SW 1573", "summary_of_the_method": "as §1"}, "PC-3 [JPC-3]": {"tested_on": "PC-3 [JPC-3]", "summary_of_the_method": "as §1"}, "NCI-H2347": {"tested_on": "NCI-H2347", "summary_of_the_method": "as §1"}, "NCI-H520": {"tested_on": "NCI-H520", "summary_of_the_method": "as §1"}, "NCI-H1650": {"tested_on": "NCI-H1650", "summary_of_the_method": "as §1"}, "NCI-H2228": {"tested_on": "NCI-H2228", "summary_of_the_method": "as §1"}, "NCI-H1915": {"tested_on": "NCI-H1915", "summary_of_the_method": "as §1"}, "RERF-LC-KJ": {"tested_on": "RERF-LC-KJ", "summary_of_the_method": "as §1"}, "LOU-NH91": {"tested_on": "LOU-NH91", "summary_of_the_method": "as §1"}, "BEN": {"tested_on": "BEN", "summary_of_the_method": "as §1"}, "NCI-H1666": {"tested_on": "NCI-H1666", "summary_of_the_method": "as §1"}, "NCI-H1993": {"tested_on": "NCI-H1993", "summary_of_the_method": "as §1"}, "A-427": {"tested_on": "A-427", "summary_of_the_method": "as §1"}, "NCI-H460": {"tested_on": "NCI-H460", "summary_of_the_method": "as §1"}, "NCI-H23": {"tested_on": "NCI-H23", "summary_of_the_method": "as §1"}, "EKVX": {"tested_on": "EKVX", "summary_of_the_method": "as §1"}, "LC-2-ad": {"tested_on": "LC-2-ad", "summary_of_the_method": "as §1"}, "LU99A": {"tested_on": "LU99A", "summary_of_the_method": "as §1"}, "NCI-H838": {"tested_on": "NCI-H838", "summary_of_the_method": "as §1"}, "NCI-H650": {"tested_on": "NCI-H650", "summary_of_the_method": "as §1"}, "NCI-H1355": {"tested_on": "NCI-H1355", "summary_of_the_method": "as §1"}}, "data": [{"molecule": "Cc1cnc(-c2cnc(NCCNc3ccc(C#N)cn3)nc2-c2ccc(Cl)cc2Cl)[nH]1", "note": "+ CC(=O)Nc1cccc(-n2c(=O)n(C3CC3)c(=O)c3c(Nc4ccc(I)cc4F)n(C)c(=O)c(C)c32)c1 [Trametinib] (partner 0.02 µM)", "values": [{"measurement": "relative viability", "setting": "LCLC-97TM1; first compound 0.08 µM", "result": 0.201}, {"measurement": "relative viability", "setting": "LCLC-97TM1; first compound 0.253 µM", "result": 0.193}, {"measurement": "relative viability", "setting": "LCLC-97TM1; first compound 0.8 µM", "result": 0.18}, {"measurement": "relative viability", "setting": "LCLC-97TM1; first compound 2.53 µM", "result": 0.214}, {"measurement": "relative viability", "setting": "NCI-H1793; first compound 0.08 µM", "result": 0.462}, {"measurement": "relative viability", "setting": "NCI-H1793; first compound 0.253 µM", "result": 0.45}, {"measurement": "relative viability", "setting": "NCI-H1793; first compound 0.8 µM", "result": 0.422}, {"measurement": "relative viability", "setting": "NCI-H1793; first compound 2.53 µM", "result": 0.403}, {"measurement": "relative viability", "setting": "SW 1573; first compound 0.08 µM", "result": 0.718}, {"measurement": "relative viability", "setting": "SW 1573; first compound 0.253 µM", "result": 0.537}, {"measurement": "relative viability", "setting": "SW 1573; first compound 0.8 µM", "result": 0.575}, {"measurement": "relative viability", "setting": "SW 1573; first compound 2.53 µM", "result": 0.337}, {"measurement": "relative viability", "setting": "PC-3 [JPC-3]; first compound 0.08 µM", "result": 0.75}, {"measurement": "relative viability", "setting": "PC-3 [JPC-3]; first compound 0.253 µM", "result": 0.646}, {"measurement": "relative viability", "setting": "PC-3 [JPC-3]; first compound 0.8 µM", "result": 0.774}, {"measurement": "relative viability", "setting": "PC-3 [JPC-3]; first compound 2.53 µM", "result": 0.703}, {"measurement": "relative viability", "setting": "NCI-H2347; first compound 0.08 µM", "result": 0.296}, {"measurement": "relative viability", "setting": "NCI-H2347; first compound 0.253 µM", "result": 0.272}, {"measurement": "relative viability", "setting": "NCI-H2347; first compound 0.8 µM", "result": 0.297}, {"measurement": "relative viability", "setting": "NCI-H2347; first compound 2.53 µM", "result": 0.287}, {"measurement": "relative viability", "setting": "NCI-H520; first compound 0.08 µM", "result": 0.781}, {"measurement": "relative viability", "setting": "NCI-H520; first compound 0.253 µM", "result": 0.614}, {"measurement": "relative viability", "setting": "NCI-H520; first compound 0.8 µM", "result": 0.788}, {"measurement": "relative viability", "setting": "NCI-H520; first compound 2.53 µM", "result": 0.706}, {"measurement": "relative viability", "setting": "NCI-H1650; first compound 0.08 µM", "result": 0.659}, {"measurement": "relative viability", "setting": "NCI-H1650; first compound 0.253 µM", "result": 0.47}, {"measurement": "relative viability", "setting": "NCI-H1650; first compound 0.8 µM", "result": 0.365}, {"measurement": "relative viability", "setting": "NCI-H1650; first compound 2.53 µM", "result": 0.469}, {"measurement": "relative viability", "setting": "NCI-H2228; first compound 0.08 µM", "result": 0.526}, {"measurement": "relative viability", "setting": "NCI-H2228; first compound 0.253 µM", "result": 0.511}, {"measurement": "relative viability", "setting": "NCI-H2228; first compound 0.8 µM", "result": 0.506}, {"measurement": "relative viability", "setting": "NCI-H2228; first compound 2.53 µM", "result": 0.42}, {"measurement": "relative viability", "setting": "NCI-H1915; first compound 0.08 µM", "result": 0.308}, {"measurement": "relative viability", "setting": "NCI-H1915; first compound 0.8 µM", "result": 0.29}, {"measurement": "relative viability", "setting": "NCI-H1915; first compound 2.53 µM", "result": 0.299}, {"measurement": "relative viability", "setting": "RERF-LC-KJ; first compound 0.08 µM", "result": 0.951}, {"measurement": "relative viability", "setting": "RERF-LC-KJ; first compound 0.253 µM", "result": 0.847}, {"measurement": "relative viability", "setting": "RERF-LC-KJ; first compound 0.8 µM", "result": 0.832}, {"measurement": "relative viability", "setting": "RERF-LC-KJ; first compound 2.53 µM", "result": 0.771}, {"measurement": "relative viability", "setting": "LOU-NH91; first compound 0.08 µM", "result": 0.799}, {"measurement": "relative viability", "setting": "LOU-NH91; first compound 0.253 µM", "result": 0.84}, {"measurement": "relative viability", "setting": "LOU-NH91; first compound 0.8 µM", "result": 0.843}, {"measurement": "relative viability", "setting": "LOU-NH91; first compound 2.53 µM", "result": 0.856}, {"measurement": "relative viability", "setting": "BEN; first compound 0.08 µM", "result": 1.25}, {"measurement": "relative viability", "setting": "BEN; first compound 0.253 µM", "result": 0.879}, {"measurement": "relative viability", "setting": "BEN; first compound 0.8 µM", "result": 1.04}, {"measurement": "relative viability", "setting": "BEN; first compound 2.53 µM", "result": 1.42}, {"measurement": "relative viability", "setting": "NCI-H1666; first compound 0.08 µM", "result": 0.864}, {"measurement": "relative viability", "setting": "NCI-H1666; first compound 0.253 µM", "result": 0.797}, {"measurement": "relative viability", "setting": "NCI-H1666; first compound 0.8 µM", "result": 0.957}, {"measurement": "relative viability", "setting": "NCI-H1666; first compound 2.53 µM", "result": 0.821}, {"measurement": "relative viability", "setting": "NCI-H1993; first compound 0.08 µM", "result": 0.506}, {"measurement": "relative viability", "setting": "NCI-H1993; first compound 0.253 µM", "result": 0.536}, {"measurement": "relative viability", "setting": "NCI-H1993; first compound 0.8 µM", "result": 0.454}, {"measurement": "relative viability", "setting": "NCI-H1993; first compound 2.53 µM", "result": 0.52}, {"measurement": "relative viability", "setting": "A-427; first compound 0.08 µM", "result": 0.814}, {"measurement": "relative viability", "setting": "A-427; first compound 0.253 µM", "result": 0.792}, {"measurement": "relative viability", "setting": "A-427; first compound 0.8 µM", "result": 0.827}, {"measurement": "relative viability", "setting": "A-427; first compound 2.53 µM", "result": 0.837}, {"measurement": "relative viability", "setting": "NCI-H460; first compound 0.08 µM", "result": 0.225}, {"measurement": "relative viability", "setting": "NCI-H460; first compound 0.253 µM", "result": 0.121}, {"measurement": "relative viability", "setting": "NCI-H460; first compound 0.8 µM", "result": 0.107}, {"measurement": "relative viability", "setting": "NCI-H460; first compound 2.53 µM", "result": 0.195}, {"measurement": "relative viability", "setting": "NCI-H23; first compound 0.08 µM", "result": 0.412}, {"measurement": "relative viability", "setting": "NCI-H23; first compound 0.253 µM", "result": 0.339}, {"measurement": "relative viability", "setting": "NCI-H23; first compound 0.8 µM", "result": 0.451}, {"measurement": "relative viability", "setting": "NCI-H23; first compound 2.53 µM", "result": 0.882}, {"measurement": "relative viability", "setting": "EKVX; first compound 0.08 µM", "result": 0.391}, {"measurement": "relative viability", "setting": "EKVX; first compound 0.253 µM", "result": 0.328}, {"measurement": "relative viability", "setting": "EKVX; first compound 0.8 µM", "result": 0.256}, {"measurement": "relative viability", "setting": "EKVX; first compound 2.53 µM", "result": 0.358}, {"measurement": "relative viability", "setting": "LC-2-ad; first compound 0.08 µM", "result": 0.998}, {"measurement": "relative viability", "setting": "LC-2-ad; first compound 0.8 µM", "result": 0.953}, {"measurement": "relative viability", "setting": "LC-2-ad; first compound 2.53 µM", "result": 0.863}, {"measurement": "relative viability", "setting": "LU99A; first compound 0.08 µM", "result": 0.549}, {"measurement": "relative viability", "setting": "LU99A; first compound 0.253 µM", "result": 0.556}, {"measurement": "relative viability", "setting": "LU99A; first compound 0.8 µM", "result": 0.53}, {"measurement": "relative viability", "setting": "LU99A; first compound 2.53 µM", "result": 0.534}, {"measurement": "relative viability", "setting": "NCI-H838; first compound 0.08 µM", "result": 0.577}, {"measurement": "relative viability", "setting": "NCI-H838; first compound 0.253 µM", "result": 0.499}, {"measurement": "relative viability", "setting": "NCI-H838; first compound 0.8 µM", "result": 0.591}, {"measurement": "relative viability", "setting": "NCI-H838; first compound 2.53 µM", "result": 0.685}, {"measurement": "relative viability", "setting": "NCI-H650; first compound 0.08 µM", "result": 1.17}, {"measurement": "relative viability", "setting": "NCI-H650; first compound 0.253 µM", "result": 0.989}, {"measurement": "relative viability", "setting": "NCI-H650; first compound 0.8 µM", "result": 1.29}, {"measurement": "relative viability", "setting": "NCI-H650; first compound 2.53 µM", "result": 0.988}, {"measurement": "relative viability", "setting": "NCI-H1355; first compound 0.08 µM", "result": 0.396}, {"measurement": "relative viability", "setting": "NCI-H1355; first compound 0.253 µM", "result": 0.384}, {"measurement": "relative viability", "setting": "NCI-H1355; first compound 0.8 µM", "result": 0.41}, {"measurement": "relative viability", "setting": "NCI-H1355; first compound 2.53 µM", "result": 0.409}]}]}
